Measurements as given in patent US11591404B2, “Treatment of cancer using a CD123 chimeric antigen receptor” (Novartis AG, priority 2014, dated 2023).
Entries after “also recorded” stand apart in the source; their conditions may differ.

Key:
AML290 cells = experiment: Pediatric patient-derived xenograft model; format: in vivo, mice
Description: Alemtuzumab treatment was also examined in a second in vivo model, a pediatric patient-derived xenograft model. In this model, mice were injected with AML290 cells. Six weeks after AML engraftment, the mice were administered saline, untransduced T cells, or CART123 cells (represented at week 0). Alemtuzumab was administered at 5 mg/kg to a subset of the mice receiving CART123 cells at week 4. […] Analysis of AML present in different organs of the xenografts after CART123 dosing was determined by flow cytometry.

[1] = tested on: luciferase-expressing human AML cell lines (MOLM14, MOLM13, U937) or primary AML specimens; experiment: Human AML xenograft models, T cell termination strategies; format: in vivo, mice; settings: for elimination of CD123-redirected CAR T cells: alemtuzumab 1 or 5 mg/kg IP, rituximab 10 mg/kg IP; for AML proliferation, antibody alone: non-CART123-treated xenograft models vs AML-only controls
Source text: Three termination strategies in human AML xenograft models were examined: (1) T cell ablation with the anti-CD52 antibody alemtuzumab after treatment with 1×10^5-1×10^6 T cells lentivirally-transduced with anti-CD123-41BB-CD3zeta CART123, (2) T cell ablation with the anti-CD20 antibody rituximab after treatment with 1×10^5-1×10^6 CART123 engineered to co-express CD20 (CART123/CD20), and (3) treatment with “biodegradable” anti-CD123 mRNA-electroporated CAR T cells (RNA-CART123). Mice engrafted with luciferase-expressing human AML cell lines (MOLM14, MOLM13, U937) or primary AML specimens (n=3) were treated with CD123-redirected CAR T cells as above. The CD123 CAR construct utilized for this experiment is the 1172 construct (SEQ ID NO: 707), and were administered to the mice at week 1. For T cell depletion studies, alemtuzumab 1 or 5 mg/kg was injected intraperitoneally (IP) at week 2, week 3, or week 4 (e.g., 1, 2, or 3 weeks post-CART123) to determine optimal dosing and timing of T cell ablation. In subsequent studies, rituximab 10 mg/kg was injected IP 4 weeks after CART123/CD20, or 1×10^7 RNA-CART123 was injected intravenously at 5, 9, and 16 days after AML engraftment. Mice were followed by weekly bioluminescent imaging and/or quantitative flow cytometry analyses of blood, spleen, and/or bone marrow.

CART123 P2A CD20 cells = experiment: Rituximab complement dependent cytotoxicity (15% rabbit complement); format: cell-based
Description: The mechanism by which the CART123P2ACD20 cell depletion is mediated was investigated. CART123 P2A CD20 cells were incubated with rituximab at different concentrations 0 μg/ml, 1 μg/ml, 10 μg/ml and 100 μg/ml, in the presence of 15% rabbit complement. […] CART123 P2A CD20 cell depletion is mediated by complement dependent cytotoxicity.

CART123P2A CD20 cells = experiment: Rituximab-mediated cytotoxicity, T cell depletion; format: cell-based; settings: 100 ug/ml, 48 hours of incubation
Description: Rituximab-mediated cytotoxicity was next assessed for the CART123 P2A CD20 cells. CART123 and CART123 P2A CD20 were incubated with Rituximab at various concentrations, 0 μg/ml, 1 μg/ml, 10 μg/ml and 100 μg/ml. Cells were harvested at 0, 4, 12, and 48 hours, and stained for CD3. The percentage of T cell depletion was computed.

r/r B-ALL = settings: cited from earlier work
[2] = PK analysis of RAD001 in tumor bearing mice; format: in vivo, NSG mice
Description: (§1) RAD001 dosing: A concentrated micro-emulsion of 50 mg equal to 1 mg RAD001 was formulated and then resuspended in D5W (dextrose 5% in water) at the time of dosing. Mice were orally dosed daily (via oral gavage) with 200 μl of the desired doses of RAD001.
PK analysis: Mice were dosed daily with RAD001 starting 7 days post tumor implantation. Dosing groups were as follows: 0.3 mg/kg, 1 mg/kg, 3 mg/kg, and 10 mg/kg. Mice were bled on days 0 and 14 following the first and last dose of RAD001, at the following time points for PK analysis: 15 minutes, 30 minutes, 1 hour, 2 hours, 4 hours, 8 hours, 12 hours, and 24 hours.

[3] = tested on: humanized CD19 CART cells; experiment: In vivo proliferation of humanized CD19 CART cells with and without RAD001 dosing; settings: RAD001 0.003 mg/kg daily with huCTL019
Description: Circles denote PBS; squares denote huCTL019; triangles denote huCTL019 with 3 mg/kg RAD001; inverted triangles denote huCTL019 with 0.3 mg/kg RAD001; diamonds denote huCTL019 with 0.03 mg/kg RAD001; and circles denote huCTL019 with 0.003 mg/kg RAD001.

[4] = tested on: huCART19 cells cultured with Nalm-6; experiment: CART proliferation in 4 day co-culture with RAD001; format: cell-based, human; settings: 0.0032 and 0.016 nM RAD001
Description: To evaluate the functionality of CARTs, the T cells are thawed and counted, and viability is assessed by Cellometer. The number of CAR-positive cells in each culture is normalized using non-transduced T cells (UTD). The impact of RAD001 on CARTs was tested in titrations with RAD001, starting at 50 nM. The target cell line used in all co-culture experiments is Nalm-6, a human pre-B cell acute lymphoblastic leukemia (ALL) cell line expressing CD19 and transduced to express luciferase.
For measuring the proliferation of CARTs, T cells are cultured with target cells at a ratio of 1:1. The assay is run for 4 days, when cells are stained for CD3, CD4, CD8 and CAR expression. The number of T cells is assessed by flow cytometry using counting beads as reference.

NALM6-luc tumors = experiment: NALM6-luc tumor growth under daily oral RAD001; format: in vivo, NSG mice; settings: daily oral dosing of RAD001 alone
Description: NALM6-luc cells: The NALM6 human acute lymphoblastic leukemia (ALL) cell line was developed from the peripheral blood of a patient with relapsed ALL. The cells were then tagged with firefly luciferase. These suspension cells grow in RPMI supplemented with 10% heat inactivated fetal bovine serum.
Mice: 6 week old NSG (NOD.Cg-Prkdc^scidIl2rg^tmIWjl/SzJ) mice were received from the Jackson Laboratory (stock number 005557).
Tumor implantation: NALM6-luc cells were grown and expanded in vitro in RPMI supplemented with 10% heat inactivated fetal bovine serum. The cells were then transferred to a 15 ml conical tube and washed twice with cold sterile PBS. NALM6-luc cells were then counted and resuspended at a concentration of 10×10^6 cells per milliliter of PBS. The cells were placed on ice and immediately (within one hour) implanted in the mice. NALM6-luc cells were injected intravenously via the tail vein in a 100 μl volume, for a total of 1×10^6 cells per mouse.
as §1

huCAR19 CAR T cells = experiment: CAR T cell expansion in vivo with RAD001 (FACS); parameters: species or system NSG mice; settings: lowest doses of RAD001
Description: CAR T cell dosing: Mice were administered 5×10^6 CAR T cells 7 days after tumor implantation. Cells were partially thawed in a 37 degree Celsius water bath and then completely thawed by the addition of 1 ml of cold sterile PBS to the tube containing the cells. The thawed cells were transferred to a 15 ml falcon tube and adjusted to a final volume of 10 mls with PBS. The cells were washed twice at 1000 rpm for 10 minutes each time and then counted on a hemocytometer. T cells were then resuspended at a concentration of 50×10^6 CAR T cells per ml of cold PBS and kept on ice until the mice were dosed. The mice were injected intravenously via the tail vein with 100 μl of the CAR T cells for a dose of 5×10^6 CAR T cells per mouse. Eight mice per group were treated either with 100 μl of PBS alone (PBS), or humanized CD19 CAR T cells.
as §1
Based on these doses, huCAR19 CAR T cells were dosed with and without RAD001 to determine the proliferative ability of these cells. The highest dose used was 3 mg/kg based on the levels of RAD001 in the blood 24 hours after dosing. […] Mice were monitored via FACS for T cell expansion.

[5] = tested on: CAR-expressing, transduced T cells; experiment: Proliferation of CARTs co-cultured with Nalm-6 cells in the presence of RAD001, 4 days; format: cell-based; settings: low doses of RAD001, cell culture, 4 days of co-culture
Description: CARTs were co-cultured with Nalm-6 cells in the presence of different concentrations of RAD001. The number of CAR-positive CD3-positive T cells (black) and total T cells (gray) was assessed after 4 days of co-culture.

alemtuzumab: anti-CD52 antibody
AML cells in spleen and bone marrow (flow cytometry) (AML290 cells; AML290): sustained ablation of AML cells in the spleen | tumor progression / remission (AML290 cells; AML290): remained in remission | elimination of CART123 T cells in the peripheral blood (AML290 cells; alemtuzumab 5 mg/kg at week 4): completely eliminate CART123 T cells in the peripheral blood | elimination of CD123-redirected CAR T cells [1]: rapidly eliminated CART123 cells | elimination of CD123-redirected CAR T cells ([1]; listed as Alemtuzumab): completely eliminated CD123-redirected CAR T cells | overall survival by timing of ablation ([1]; alemtuzumab at week 3 or week 4 vs week 2): improved survival | AML proliferation, antibody alone [1]: did not inhibit AML proliferation

Rituximab: anti-CD20 antibody
cell depletion with complement (CART123 P2A CD20 cells; Rituximab 100 ug/ml): depletion of the majority of CART123 P2A CD20 cells after 4 hours of incubation | cell depletion with complement (CART123 P2A CD20 cells; rituximab 1 ug/ml or 10 ug/ml): depletion of the majority of CART123 P2A CD20 cells after 12 hours of incubation | T cell depletion (CART123P2A CD20 cells): direct cytotoxicity | elimination of CD123-redirected CAR T cells [1]: rapidly eliminated T cells while preserving leukemia remission; also recorded: completely eliminated CD123-redirected CAR T cells | AML proliferation, antibody alone [1]: did not inhibit AML proliferation

blinatumomab: bi-specific anti-CD19/CD3 antibody
share of relapses that are CD19-negative (r/r B-ALL): about 30%

CO[C@H]1C[C@@H]2CC[C@@H](C)[C@@](O)(O2)C(=O)C(=O)N2CCCC[C@H]2C(=O)O[C@H]([C@H](C)C[C@@H]2CC[C@@H](OCCO)[C@H](OC)C2)CC(=O)[C@H](C)/C=C(\C)[C@@H](O)[C@@H](OC)C(=O)[C@H](C)C[C@H](C)/C=C/C=C/C=C/1C [RAD001, (1R,9S,12S,15R,16E,18R,19R,21R,23 S,24E,26E,28E,30S,32S,35R)-1,18-dihydroxy-12-{(1R)-2-[(1S,3R,4R)-4-(2-hydroxyethoxy)-3-methoxycyclohexyl]-1-methylethyl}-19,30-dimethoxy-15,17,21,23,29,35-hexamethyl-11,36-dioxa-4-aza-tricyclo[30.3.1.04,9]hexatriaconta-16,24,26,28-tetraene-2,3,10,14,20-pentaone]
concentration of RAD001 ([2]; 24 hours after the final dose): above 10 nM | concentration at 24 h ([2]; NSG, mouse, blood, oral, 24 hours after dosing, 0.3 mg/kg, day 0 and day 14, read-out: RAD001 concentrations in the blood): > 10 nM | stability in the blood ([2]; tumor bearing mice): fairly stable in the blood | CART cell proliferation in vivo [3]: enhancement in CART cell proliferation | proliferation of huCART19 cells [4]: proliferation was higher than observed without the addition of RAD001 | growth of NALM6-luc tumors (NALM6-luc tumors): did not have an impact on the growth of NALM6-luc tumors | proliferation of the CAR T cells in vivo (huCAR19 CAR T cells): enhanced proliferation of the CAR T cells | proliferation of CAR-expressing, transduced T cells [5]: enhanced
